Laboratory results from a melting point compilation (Tetko et al.; mined from patent text by program, amines drawn as free bases though some values may be those of a salt).

Row | Compound | melting point [°C]
1 | CC1CC(=O)C1(Cl)CC(Cl)(Cl)Cl (stereo not drawn) | 80 to 81
2 | Cc1c(-c2ncc(Cl)cc2F)nn(C)c1C(=O)O | 194 to 196
3 | CCOC(=O)C(=O)Nc1cccc(N(C)C)c1C(N)=O | 133 to 135
4 | CCOC(=O)CSc1ccc(-c2nc3cnccc3[nH]2)cc1 | 230
5 | CCCCCS(=O)(=O)NC(=O)/C=C/c1ccc(OCC(COC(C)C)OC(C)=O)cc1Oc1ncc(C(F)(F)F)cc1Cl (stereo not drawn) | 101 to 103
6 | COc1cc(-c2ccc(-c3ccc(N)c(OC)c3)o2)ccc1N | 188 to 190
7 | CC(=O)NC(C(=O)O)c1ccc2occc2c1 (stereo not drawn) | 230 to 232
8 | CS(=O)(=O)c1sc(S(N)(=O)=O)cc1CCO | 120 to 124
9 | CCc1nc2c(N)nc3cc(CCCN)ccc3c2n1CC1CCOCC1 | 217 to 220
10 | CC(CCC(=O)O)CC(C)CC(C)C(=O)C=C(O)C(C)CC(C)CC=CC(C)C(O)C(C)C(O)CC1CCC(C)(C2CCC(C)(C(C)O)O2)O1 (stereo not drawn) | 203
11 | CCCS(=O)(=O)Oc1ccc(CO)c(Oc2ncc(C(F)(F)F)cc2Cl)c1 | 68.5 to 69.5
12 | CCCCc1nc2c(N)nc3ccc(OCC(=O)N(CCOC)CCOC)cc3c2n1C | 125 to 128
13 | Clc1cn2c(Cl)cnc2cn1 | 115 to 116
14 | COc1ccc(-c2[nH]nc3c2C(=O)c2c(NC(=O)CNCCO)cccc2-3)cc1 | 243
15 | Cc1nnnn1CC(C)n1nnc2cc3c(=O)n(C4CC4)nnc3cc2c1=O (stereo not drawn) | 208 to 211
16 | CCCCOc1ccc(-c2ccc3c(c2)C=C(C(=O)OC)CCS3(=O)=O)cc1 | 123 to 125

Row | Compound | melting point [°C]
17 | CNCCc1c[nH]c2ccc(Cn3cncn3)cc12 | 139 to 141
18 | COc1ccc2c(c1)c(=O)c(S(=O)(=O)N(C)C)cn2C | 199 to 201
19 | COc1ccc(-c2cccc(OC3SCC(OC(C)=O)C(OC(C)=O)C3OC(C)=O)c2)cn1 (stereo not drawn) | 132
20 | CCc1cccc(C)c1NC(=O)C(C)Br (stereo not drawn) | 181 to 182
21 | CN(N)c1cc(N)nc(N)n1 | 214 to 217
22 | Cc1cc(CC(=O)O)ccc1[N+](=O)[O-] | 95
23 | CN1C(C(=O)Nc2ccc(Cl)ccc2=O)=C(O)c2sccc2S1(=O)=O | 243 to 245
24 | COC(=O)N[C@H](C(=O)O)C(C)(C)C | 106 to 108
25 | CCCCCCCCCCCCCCCCCC(=O)c1c[nH]c2cc(C(=O)O)ccc12 | 268 to 270
26 | Cc1cc(C(F)F)c2c(n1)C(O)CCC2 (stereo not drawn) | 101 to 104
27 | Cc1nc(N(C)C)sc1C(=O)c1ccc(N)c(N)c1 | 174 to 178
28 | CNC(=O)Oc1cccc(C2CCCN2C(=O)c2ccccc2)c1 (stereo not drawn) | 117 to 121
29 | c1cc(OC2CN3CCC2CC3)no1 (stereo not drawn) | 80 to 81
30 | Cn1c(C(F)(F)F)cc(=O)n(-c2cc(OCc3ccc(Cl)cc3Cl)c(Cl)cc2F)c1=O | 112 to 120
31 | CCN(C(=O)c1c(Cl)cccc1[Si](C)(C)C)C(OC)C(C)(C)C (stereo not drawn) | 82 to 83
32 | Cc1cccc(-n2c(CCl)nc3ccccc3c2=O)c1 | 183 to 185

The next lines start with the values.

Row | melting point [°C] | Compound
33 | > 300 | Cn1ncc2c1-c1c(Cc3ccccc3)sc(C(=O)O)c1CC2
34 | 105 to 106 | N#C[C@@H]1C[C@@H]2C[C@@H]2N1C(=O)[C@@H](NC(=O)OCc1ccccc1)C12CC3CC(CC(O)(C3)C1)C2
35 | 98 to 103 | CCOC(=O)Cc1ncc2c(n1)-c1ccc(Cl)cc1C(c1ccccc1F)=NC2
36 | 177 to 179 | CCC1(c2ccccc2)Cc2cc(O)c(Cl)c(Cl)c2C1=O (stereo not drawn)
37 | 289 | CC(C)c1cccc(C(C)C)c1N1C(=O)c2cccc3c(Cl)ccc(c23)C1=O
38 | 238 to 240 | O=C1CCC(N2Cc3cc(CNC(=O)Nc4c(Cl)cccc4Cl)ccc3C2=O)C(=O)N1 (stereo not drawn)
39 | 114 to 115 | CC1(C)CCCN(C2c3cc4nonc4cc3OC(C)(C)C2O)C1=O (stereo not drawn)
40 | 217 to 219 | O=[N+]([O-])c1cnc(-c2nc3ccccc3[nH]2)n1CCO
41 | 245 | O=C1c2ccccc2C(=O)c2sc(-c3ccoc3)nc21
42 | 83 to 86 | Cc1ccc(S(=O)(=O)OCC2Cc3cccc(-c4ccc(F)cc4)c3O2)cc1 (stereo not drawn)
43 | 215 to 217 | Cc1cccc(N2CCN(c3ccnc4sc(C(N)=O)c(N)c34)CC2C)c1 (stereo not drawn)
44 | 145 to 149 | CC[C@H](C)[C@H](NC(=O)OCc1ccccc1)C(=O)Nc1nncs1 (racemic)
45 | 130 to 132 | CCOC(=O)N1C=CC(c2c(-c3ccccc3)nn3ccccc23)C(Cl)=N1 (stereo not drawn)
46 | 122 to 124 | Cn1ccc(CON2C(=O)c3ccccc3C2=O)n1
47 | 235 to 240 | CC(=O)Nc1ccc(-c2ncc(NC(=O)OCc3ccccc3)c(=O)n2CC(=O)NC(Cc2ccccc2)C(=O)C(F)(F)F)cc1 (stereo not drawn)
48 | 135 to 141 | FC(F)(F)c1ccc(CC[C@H]2CNCCN2)cc1
49 | > 250 | COc1ccc(C(=O)Nc2ccncc2)c2c1[nH]c1ccccc12
50 | 99 to 102 | CC1CCc2cc(N3C[C@H](CO)OC3=O)ccc2N1C(=O)OCc1ccccc1 (stereo partly drawn)
51 | 39.6 to 40.1 | CCCCC(OCC(=O)c1ccccc1)C(F)CC (stereo not drawn)
52 | 143 | C#CC1CCC(c2ccc(C3CCC(CCC)CC3)cc2)CC1 (stereo not drawn)
53 | 174 to 176 | CN(C)C1CCN(CCc2ccc(-c3cccc(N)n3)cc2)CC1

Row | melting point [°C] | Compound
54 | 161 to 165 | CC(C)(C)OC(=O)N1CCC[C@@H](Nc2nccc(-c3c(-c4cccc(C(N)=O)c4)nc4sccn34)n2)C1
55 | 98 to 100 | CCC(C)(CC)c1nnc(NC(=O)c2ccccc2)s1
56 | 135 to 140 | CN1c2ccncc2NCc2cccn21
57 | 179 | CCn1c(N)c(C(N)=O)c(=O)c2cnc(Nc3ccc(N4CCN(C(C)=O)CC4)cc3)nc21
58 | 165 to 168 | N#CN1CCC2(CC1)Oc1ccccc1C2n1cccc1 (stereo not drawn)
59 | 139 to 140 | CN1CCc2ccc(OCCCCN3CCN(c4cccc(Cl)c4Cl)CC3)cc2NC1=O
60 | 228 to 230 | CC1(C)C=C(c2ccncc2O)c2ccccc2O1
61 | 173 to 175 | NS(=O)(=O)C1(c2cnn(CC(F)=C(F)F)c(=O)c2-c2ccc(F)cc2)C=CC=CC1 (stereo not drawn)
62 | 75 to 77 | CCCCSc1cc(C(=O)O)cc(S(N)(=O)=O)c1-c1ccccc1
63 | 102 to 107 | CN(C(F)(F)C(F)F)S(=O)(=O)c1ccccc1S(N)(=O)=O
64 | 141 to 143 | Nc1ccc(Cl)cc1C(O)(C#CC1CC1)C(F)(F)F (stereo not drawn)
65 | 107 | CCOC(=O)Nc1ccc(C(c2ccccc2)n2ccnc2)cc1C=O (stereo not drawn)
66 | 162 | OC(CCC1CCNCC1)c1cc(-c2ccccc2)nc2ccccc12 (stereo not drawn)
67 | 82 to 84 | N=C(Nc1cccc(NC(=O)/C=C/c2ccccc2C(F)(F)F)c1)c1ccccc1
68 | 145 to 146 | COc1cc(COc2ncccc2CC(=O)O)ccc1OCc1nc(-c2ccccc2)oc1C
69 | 225 to 235 | c1ccc(C2Nc3c4c(nc5ccccc35)CCCC4O2)cc1 (stereo not drawn)
70 | 157 to 159 | COc1ccc(C2=NN(C3CCN(C(=O)c4ccccc4OC)CC3)C(=O)C(C)(C)C2)cc1OC
71 | 77 to 79 | CC(=O)Oc1ccccc1C(=O)Oc1cccc(CO)c1
72 | 59.5 to 60 | CC(=O)c1c(N2CCCC2)nn2ccccc12
73 | 191 to 196 | CCNC(=S)NC1=Nc2ccccc2CS1
